Columns and labels:
[1] = target: T1, Alpha-2A adrenergic receptor (Rattus norvegicus, UniProt P22909); experiment: The compound was tested for binding affinity against alpha-2d-adrenoceptor, from rat clones.
T1 sequence (P22909 whole entry): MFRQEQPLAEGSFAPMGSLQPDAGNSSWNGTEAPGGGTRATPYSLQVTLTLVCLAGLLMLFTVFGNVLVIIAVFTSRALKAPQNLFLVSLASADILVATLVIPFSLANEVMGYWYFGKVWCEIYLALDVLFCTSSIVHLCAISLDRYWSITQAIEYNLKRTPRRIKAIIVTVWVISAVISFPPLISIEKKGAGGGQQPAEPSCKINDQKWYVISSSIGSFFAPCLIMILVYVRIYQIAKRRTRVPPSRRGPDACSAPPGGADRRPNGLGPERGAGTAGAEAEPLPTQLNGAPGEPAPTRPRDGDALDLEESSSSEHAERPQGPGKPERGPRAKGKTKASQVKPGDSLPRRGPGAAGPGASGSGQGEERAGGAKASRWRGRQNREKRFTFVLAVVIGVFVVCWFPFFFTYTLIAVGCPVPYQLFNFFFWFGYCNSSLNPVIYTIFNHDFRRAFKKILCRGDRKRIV

[2] = target: Alpha-1B adrenergic receptor (Rattus norvegicus, UniProt P15823); experiment: Overall binding displacement in tissues containing only the Alpha-1B adrenergic receptor (rat spleen, rat liver); format: tissue-based
Alpha-1B adrenergic receptor, sequence (P15823 whole entry, looked up): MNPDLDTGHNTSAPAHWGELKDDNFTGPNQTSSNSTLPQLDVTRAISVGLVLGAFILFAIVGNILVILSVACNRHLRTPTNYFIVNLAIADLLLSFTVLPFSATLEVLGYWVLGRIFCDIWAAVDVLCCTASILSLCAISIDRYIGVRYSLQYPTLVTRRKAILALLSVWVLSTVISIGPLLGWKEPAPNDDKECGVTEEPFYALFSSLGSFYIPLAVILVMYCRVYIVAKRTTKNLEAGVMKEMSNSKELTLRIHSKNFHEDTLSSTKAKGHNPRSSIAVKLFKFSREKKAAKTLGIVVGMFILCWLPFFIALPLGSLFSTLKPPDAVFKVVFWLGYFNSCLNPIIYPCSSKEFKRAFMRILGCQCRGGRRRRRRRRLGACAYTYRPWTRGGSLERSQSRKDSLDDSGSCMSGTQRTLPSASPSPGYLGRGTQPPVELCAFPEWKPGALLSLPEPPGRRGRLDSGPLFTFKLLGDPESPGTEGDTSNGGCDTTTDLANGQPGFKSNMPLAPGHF

| Compound | Ki [1] [nM] | Ki [2] [nM] |
| --- | --- | --- |
| COc1cccc(OC)c1OCCNCC1COc2ccccc2O1 (configuration not stated) | 46 | – |
| COc1ccccc1N1CCN(CCCNc2c(C)c(=O)n(C)c(=O)n2C)CC1 | – | 96 |

Source: ChEMBL document CHEMBL1128530, “Alpha- and beta-adrenoceptors: from the gene to the clinic. 1. Molecular biology and adrenoceptor subclassification” (J Med Chem, 1995)
